Where two headings read alike, the source gives them in different places. One block for each compound: values may come before it.
Columns and labels:
[1] = system: S. saprophyticus 662; test: checkerboard titration, gemifloxacin and amoxicillin (MIC, FIC); assay type: cell-based, Staphylococcus saprophyticus
Protocol: The concentration range tested varied for each drug/organism combination to encompass the MIC endpoints of the individual components. […] The last well (H) in column 12 was used as a positive growth control well, containing only medium and test isolate.
The bacteria were diluted to a 0.5 McFarland standard and then further diluted 1/50. Each well was inoculated with 25 μl of the isolate to give a final inoculum density of approximately 5×10^5 cfu/ml. […] After inoculation, the plates were covered with a 96 well microtitre plate lid and incubated at 35° C. in ambient air for 20–24 hours. A 10 μl aliquot of the inoculum was plated on trypticase soy agar containing 5% sheep blood to determine the purity of the final test inoculum.
2) S. saprophyticus 662 was obtained from the SmithKline Beecham Anti-Infectives Research Culture Collection and stored at −80° C. in 10% glycerol. Before testing, the isolate was passaged onto agar plates (trypticase soy agar containing 5% sheeps blood) from the frozen stock for two consecutive days. Cation adjusted Mueller Hinton broth (BBL, Cockeysville, Md.) was used for the isolate.
The combined effect of gemifloxacin and amoxicillin was investigated in S. saprophyticus 662 by using the checkerboard titration method described in Example 1.

[2] = system: E. coli ATCC 25922; test: checkerboard titration, gemifloxacin and cefaclor (MIC, FIC); assay type: cell-based, Escherichia coli
Protocol: (§1) Checkerboard microtitre broth dilution plates were prepared using the Hamilton MicroLab AT Plus system (Reno, Nev.). Two-fold serial dilutions (50 μl) of cefotaxime were made in columns 1 through 11 of a microtitre plate. Two-fold serial dilutions of gemifloxacin were prepared manually and the MicroLab AT Plus was used to dispense 25 μl of gemifloxacin at each concentration into rows A through G of the microtitre plate. The concentration range tested varied for each drug/organism combination to encompass the MIC endpoints of the individual components. Column 12 contained two fold serial dilutions of gemifloxacin only, and row H contained two fold serial dilutions of cefotaxie only. The last well (H) in column 12 was used as a positive growth control well, containing only medium and test isolate.
(§2) The bacteria were diluted to a 0.5 McFarland standard and then further diluted 1/50. Each well was inoculated with 25 μl of the isolate to give a final inoculum density of approximately 5×10^5 cfu/ml. The MicroLab AT Plus 2 was used to add the inoculum to the microtitre plates. After inoculation, the plates were covered with a 96 well microtitre plate lid and incubated at 35° C. in ambient air for 20–24 hours. A 10 μl aliquot of the inoculum was plated on trypticase soy agar containing 5% sheep blood to determine the purity of the final test inoculum.
(§3) Following incubation, a microtitre mirror reader (Cooke Instruments Ltd., England) was used to assist in determining the microdilution MIC endpoints. The MIC was determined as the lowest concentration of compound that inhibited visible growth of the organism.
(§4) The Fractional Inhibitory Concentrations (FICs) were calculated using the following formula: (A)/(MICA)+(B)/(MICB)=FICA+FICB=FICIndex wherein: • A is the MIC of drug A in the presence of drug B • B is the MIC of drug B in the presence of drug A • MIC A is the MIC of the organism to drug A alone • MIC B is the MIC of the organism to drug B alone • FIC A is the fractional inhibitory concentration of drug A • FIC B is the fractional inhibitory concentration of drug B
(§5) The FIC indices were interpreted using the following criteria: • ≦0.5=Synergy • >0.5–1=Additive • >1–2=Indifference • >2=Antagonism
3) E. coli ATCC 25922 was obtained from the SmithKline Beecham Anti-Infectives Research Culture Collection and stored at −80° C. in 10% glycerol. Before testing, the isolate was passaged onto agar plates (trypticase soy agar containing 5% sheeps blood) from the frozen stock for two consecutive days. […]
The combined effect of gemifloxacin and cefaclor was investigated in E. coli ATCC 25922 by using the checkerboard titration method described in Example 1. FIC Indices were calculated and interpreted as in Example 1.

[3] = system: E. faecalis ATCC 29212; test: checkerboard titration, gemifloxacin and cefotaxime (MIC, FIC); assay type: cell-based, Enterococcus faecalis
Protocol: 1) The combined effect of gemifloxacin and cefotaxime was investigated in E. faecalis by using a checkerboard titration method. Evaluation for synergistic activity was carried out by calculation of fractional inhibitory concentrations (FICs) according to the method of Eliopoulos et al (1996, Antimicrobial Combinations, Antibiotics in Laboratory Medicine, Victor Lorian, 4th Edition, pp 337–338, Baltimore, Md., Williams and Wilkins).
E. faecalis ATCC 29212 was obtained from the SmithKline Beecham Anti-Infectives Research Culture Collection and stored at −80° C. in 10% glycerol. Before testing, the isolate was passaged onto agar plates (trypticase soy agar containing 5% sheeps blood) from the frozen stock for two consecutive days. Cation adjusted Mueller Hinton broth (BBL, Cockeysville, Md.) was used for the isolate.
as §1, §2, §3, §4, §5

[4] = system: clinically isolated P. aeruginosa; test: checkerboard titration, gemifloxacin or ciprofloxacin with ceftazidime, 27 clinical isolates (Example 4); assay type: cell-based, Pseudomonas aeruginosa; settings: for FICB: FIC of ceftazidime; for MIC: Pseudomonas aeruginosa
Protocol: The test organisms were clinical isolates collected in Korea. Organisms were frozen at −70 C prior to testing. Testing was done by the checkerboard method in 96-well plates using Mueller-Hinton broth. […] Ceftazidime was also dispensed alone in the first row in the first column. Test strains of P. aeruginosa were grown for 18 h in Mueller-Hinton broth, and then these overnight cultures were diluted with the same fresh medium to the density of approximately 10^7 CFU/mL. The bacterial concentrations were determined by measuring optical density or turbidity of the suspension and were verified by standard colony counts on antibiotic-free agar plates. A diluted bacterial solution was applied to 96-well plates containing serially diluted antimicrobial agents to yield 10^4 CFU per spot. Plates were incubated aerobically overnight.
(§6) Minimal inhibitory concentrations (MICs) for each separate drug were determined. For wells along the growth-no growth interface, synergy was determined by calculating the Fractional Inhibitory Concentration (FIC) index. The Fractional Inhibitory Concentration (FIC) indices were calculated using the following formula: FICindex=FICA+FICB=[A]/MICA+[B]/MICB • Wherein: • FICA(or B), is the FIC of drug A (or B) MICA (or B) is the MIC of the organism to drug A (or B) • A (or B) is concentration of drug A (or B) that is the lowest inhibitory concentration
(§7) The FIC indices were interpreted using the following criteria: • ≦0.5=Synergy • >0.5–1.0=Additive • >1.0–4.0=Indifference • >4.0=Antagonism

[5] = system: clinically isolated P. aeruginosa strains; test: checkerboard method, gemifloxacin or ciprofloxacin with ceftazidime, 6 clinical isolates (Example 5); assay type: cell-based, Pseudomonas aeruginosa; settings: for FICB: FIC of ceftazidime; for MIC: Pseudomonas aeruginosa
Protocol: as §6, §7
The test organisms were clinical isolates collected in Korea. Organisms were frozen at −70 C. prior to testing. […] Gemifloxacin or ciprofloxacin solution was dispensed alone in the first row and combined with ceftazidime in the remaining rows. Ceftazidime as also dispensed alone in the first row in the first column. Test strains of P. aeruginosa were grown for 18 h in Mueller-Hinton broth, and then these overnight cultures were diluted with the same fresh medium to the density of approximately 10^7 CFU/mL. The bacterial concentrations were determined by measuring optical density or turbidity of the suspension and were verified by standard colony counts on antibiotic-free agar plates. A diluted bacterial solution was applied to 96-well plates containing serially diluted antimicrobial agents to yield 5×10^5 CFU/mL. Plates were incubated at 35 C for 18 hours.
MICs for each separate drug were determined, and for wells along the growth-no growth interface, synergy was determined by calculating FIC Indices as in Example 4. FIC Indices were calculated and interpreted as in Example 4.

[6] = drug alone, no unit in this line (other lines μg/ml)

MIC ([1]; Staphylococcus saprophyticus, 662, in presence of gemifloxacin 0.004 μg/ml, read-out: amoxicillin MIC): 0.125 µg/mL
Compound: CC1(C)S[C@@H]2[C@H](NC(=O)[C@H](N)c3ccc(O)cc3)C(=O)N2[C@H]1C(=O)O [amoxicillin]

MIC ([2]; Escherichia coli, ATCC25922, in presence of gemifloxacin 0.002 μg/ml, read-out: cefaclor MIC): 1 µg/mL
cefaclor MIC [2, 6]: 4
Compound: N[C@@H](C(=O)N[C@@H]1C(=O)N2C(C(=O)O)=C(Cl)CS[C@H]12)c1ccccc1 [cefaclor]

MIC ([3]; Enterococcus faecalis, ATCC29212, in presence of gemifloxacin 0.008 μg/ml, read-out: cefotaxime MIC): 16 µg/mL
cefotaxime MIC [3, 6]: 256
amoxicillin MIC [1, 6]: 0.5
Compound: CO/N=C(\C(=O)N[C@@H]1C(=O)N2C(C(=O)O)=C(COC(C)=O)CS[C@H]12)c1csc(N)n1 [cefotaxime]

MIC ([4]; P. aeruginosa 6003, drug alone, read-out: ceftazidime MIC): 4 µg/mL
MIC ([4]; P. aeruginosa 6003, in combination with gemifloxacin, read-out: Cceftazidime MIC): 1 µg/mL
MIC ([4]; P. aeruginosa 6021, drug alone, read-out: ceftazidime MIC): 4 µg/mL
MIC ([4]; P. aeruginosa 6021, in combination with gemifloxacin, read-out: Cceftazidime MIC): 1 µg/mL
MIC ([4]; P. aeruginosa 6030, drug alone, read-out: ceftazidime MIC): 4 µg/mL
MIC ([4]; P. aeruginosa 6030, in combination with gemifloxacin, read-out: Cceftazidime MIC): 1 µg/mL
MIC ([4]; P. aeruginosa 6045, drug alone, read-out: ceftazidime MIC): 64 µg/mL
MIC ([4]; P. aeruginosa 6045, in combination with gemifloxacin, read-out: Cceftazidime MIC): 8 µg/mL
MIC ([4]; P. aeruginosa 6047, drug alone, read-out: ceftazidime MIC): 64 µg/mL
MIC ([4]; P. aeruginosa 6047, in combination with gemifloxacin, read-out: Cceftazidime MIC): 2 µg/mL
MIC ([4]; P. aeruginosa 6113, drug alone, read-out: ceftazidime MIC): 8 µg/mL
MIC ([4]; P. aeruginosa 6113, in combination with gemifloxacin, read-out: Cceftazidime MIC): 2 µg/mL
MIC ([4]; P. aeruginosa 6123, drug alone, read-out: ceftazidime MIC): 4 µg/mL
MIC ([4]; P. aeruginosa 6123, in combination with gemifloxacin, read-out: Cceftazidime MIC): 1 µg/mL
MIC ([4]; P. aeruginosa 6173, drug alone, read-out: ceftazidime MIC): 4 µg/mL
MIC ([4]; P. aeruginosa 6173, in combination with gemifloxacin, read-out: Cceftazidime MIC): 1 µg/mL
MIC ([4]; P. aeruginosa P032, drug alone, read-out: ceftazidime MIC): 4 µg/mL
MIC ([4]; P. aeruginosa P032, in combination with gemifloxacin, read-out: Cceftazidime MIC): 1 µg/mL
MIC ([4]; P. aeruginosa P036, drug alone, read-out: ceftazidime MIC): 32 µg/mL
MIC ([4]; P. aeruginosa P036, in combination with gemifloxacin, read-out: Cceftazidime MIC): 4 µg/mL
MIC ([4]; P. aeruginosa P039, drug alone, read-out: ceftazidime MIC): 8 µg/mL
MIC ([4]; P. aeruginosa P039, in combination with gemifloxacin, read-out: Cceftazidime MIC): 2 µg/mL
MIC ([5]; P. aeruginosa 6140, drug alone, read-out: ceftazidime MIC): 32 µg/mL
MIC ([5]; P. aeruginosa 6140, in combination with gemifloxacin, read-out: Cceftazidime MIC): 8 µg/mL
MIC ([5]; P. aeruginosa 6168, drug alone, read-out: ceftazidime MIC): 32 µg/mL
MIC ([5]; P. aeruginosa 6168, in combination with gemifloxacin, read-out: Cceftazidime MIC): 2 µg/mL
MIC ([5]; P. aeruginosa P003, drug alone, read-out: ceftazidime MIC): 32 µg/mL
MIC ([5]; P. aeruginosa P003, in combination with gemifloxacin, read-out: Cceftazidime MIC): 2 µg/mL
Compound: CC(C)(O/N=C(\C(=O)N[C@@H]1C(=O)N2C(C(=O)[O-])=C(C[n+]3ccccc3)CS[C@H]12)c1csc(N)n1)C(=O)O [ceftazidime]
FICB ([4]; P. aeruginosa 6003): 0.25
FICB ([4]; P. aeruginosa 6021): 0.25
FICB ([4]; P. aeruginosa 6030): 0.25
FICB ([4]; P. aeruginosa 6045): 0.13
FICB ([4]; P. aeruginosa 6047): 0.03
FICB ([4]; P. aeruginosa 6113): 0.25
FICB ([4]; P. aeruginosa 6123): 0.25
FICB ([4]; P. aeruginosa 6173): 0.25
FICB ([4]; P. aeruginosa P032): 0.25
FICB ([4]; P. aeruginosa P036): 0.13
FICB ([4]; P. aeruginosa P039): 0.25
FICB ([5]; P. aeruginosa 6140): 0.25
FICB ([5]; P. aeruginosa 6168): 0.06
FICB ([5]; P. aeruginosa P003): 0.06

From US7169792B2, “Method of treating bacterial infections using gemifloxacin or a salt thereof and a β-lactam antibiotic” (priority 2002, dated 2007)
